Columns and labels:
[1] = molecular target: T1, CFTR fragments (CFTR^370, CFTR^373, CFTR^375, CFTR^380, CFTR^430, CFTR^530, CFTR^653) (Homo sapiens, UniProt P13569); assay: CFTR fragment steady-state accumulation by immunoblot in HEK293 cells; type: cell-based; details: HEK293, 4 hours bortezomib
T1 construct: expressed in transfected cells; host or cells: HEK293, transient transfection
Procedure: Steady-state levels of CFTR and its mutants are determined by western blot analysis. HEK293 cells are transiently transfected with the indicated plasmids (Grove, et al., 2011, Mol Biol Cell, 22: 301-14). The transfected cells are allowed to recover for approximately 18 hrs before addition of DMEM and then supplemented with lumacaftor or DMSO (control). The cells are incubated with the correctors for 24 hrs before isolating the cells for western blot analysis. The harvested cells are diluted with 2×SDS sample buffer (100 mM Tris-HCl (pH 6.8)/4% SDS/0.05% Bromophenol Blue/20% glycerol), sonicated, and heated at 37° C. prior to resolving the proteins on SDS-PAGE gels. The proteins are transferred to nitrocellulose membranes and the membranes are probed with the designated antibodies. β-tubulin is used to indicate loading controls.
To localize the region in CFTR on which lumacaftor acts to correct ΔF508-CFTR misfolding, immunoblot and pulse-chase studies are used to monitor the impact of the drug on the accumulation of a set of CFTR and ΔF508-CFTR fragments that expose surfaces present on CFTR folding intermediates.
A set of CFTR fragments with domain boundaries that permitted them to accumulate in unstable or stable states are expressed in HEK293 cells, and the effect of 5 μM lumacaftor on the accumulation of different fragments is determined. As a point of reference, the impact of the proteasome inhibitor bortezomib on CFTR fragment accumulation is also measured.
Cells are treated for 4 hours with bortezomib or 18 hours at 37° C. with lumacaftor. The amount of CFTR fragment accumulation is determined by immunoblot.
To evaluate whether the 362-380 helix is critical for MSD1 folding, the accumulation and sensitivity to lumacaftor of CFTR^373, CFTR^375, and CFTR^380 is analyzed. CFTR^373 accumulation is similar to that of CFTR^370 and insensitive to lumacaftor. CFTR^375 accumulation is similar to CFTR^370, but its amounts are increased around 6-fold by lumacaftor. […] Maximal accumulation of CFTR^380 occurs at 5 μM lumacaftor.

ΔF508-CFTR = molecular target: T2, ΔF508-CFTR (Homo sapiens, UniProt P13569, DEL508-508); details: bronchial epithelial cells from CF subjects; cited from earlier work
T2 construct: endogenous in cells; host or cells: primary human bronchial epithelial cells from CF subjects homozygous for ΔF508
T2 sequence (P13569 with tags, fused parts or gaps DEL508-508): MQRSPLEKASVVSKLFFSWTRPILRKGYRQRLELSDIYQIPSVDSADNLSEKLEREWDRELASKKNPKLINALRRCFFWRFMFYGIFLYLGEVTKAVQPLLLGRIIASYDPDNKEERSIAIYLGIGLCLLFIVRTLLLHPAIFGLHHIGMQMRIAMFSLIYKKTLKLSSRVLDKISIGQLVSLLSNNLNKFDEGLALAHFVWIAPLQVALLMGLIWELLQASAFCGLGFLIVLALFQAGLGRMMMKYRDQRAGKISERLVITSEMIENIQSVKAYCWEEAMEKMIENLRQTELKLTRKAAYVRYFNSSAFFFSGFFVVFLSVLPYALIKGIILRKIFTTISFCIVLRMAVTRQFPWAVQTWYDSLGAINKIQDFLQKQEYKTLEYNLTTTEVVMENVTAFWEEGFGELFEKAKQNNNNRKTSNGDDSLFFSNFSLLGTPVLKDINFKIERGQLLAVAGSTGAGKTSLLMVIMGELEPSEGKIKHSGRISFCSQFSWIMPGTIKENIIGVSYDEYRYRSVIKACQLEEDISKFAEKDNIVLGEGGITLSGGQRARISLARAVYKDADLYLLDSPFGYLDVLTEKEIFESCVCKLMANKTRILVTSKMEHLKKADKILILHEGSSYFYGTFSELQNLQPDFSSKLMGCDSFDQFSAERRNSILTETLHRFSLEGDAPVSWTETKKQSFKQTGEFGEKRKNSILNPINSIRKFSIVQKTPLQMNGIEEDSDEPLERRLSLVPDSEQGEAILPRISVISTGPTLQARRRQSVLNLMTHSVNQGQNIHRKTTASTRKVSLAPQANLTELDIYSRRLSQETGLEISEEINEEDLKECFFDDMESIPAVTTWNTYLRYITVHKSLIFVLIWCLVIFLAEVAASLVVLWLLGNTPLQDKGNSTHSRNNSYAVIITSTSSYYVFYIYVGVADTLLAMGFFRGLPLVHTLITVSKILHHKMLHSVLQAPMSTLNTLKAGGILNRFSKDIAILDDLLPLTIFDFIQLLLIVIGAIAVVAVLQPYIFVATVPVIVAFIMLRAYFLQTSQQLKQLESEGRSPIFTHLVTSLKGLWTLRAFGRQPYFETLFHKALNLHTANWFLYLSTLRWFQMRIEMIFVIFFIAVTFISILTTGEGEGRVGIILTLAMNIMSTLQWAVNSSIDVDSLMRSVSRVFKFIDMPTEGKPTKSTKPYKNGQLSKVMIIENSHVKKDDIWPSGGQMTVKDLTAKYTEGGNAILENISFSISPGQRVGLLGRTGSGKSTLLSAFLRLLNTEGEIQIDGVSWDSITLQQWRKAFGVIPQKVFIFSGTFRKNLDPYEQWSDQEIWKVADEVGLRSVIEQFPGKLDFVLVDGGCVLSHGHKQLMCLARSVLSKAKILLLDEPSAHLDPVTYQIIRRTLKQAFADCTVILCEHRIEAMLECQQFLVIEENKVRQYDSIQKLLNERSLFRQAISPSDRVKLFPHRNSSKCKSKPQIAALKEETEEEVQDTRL

Row | accumulation of CFTR^430, sensitivity to proteasome inhibition [1] | accumulation of CFTR^653, sensitivity to proteasome inhibition [1] | increase in accumulation of CFTR^370 [1] | increase in accumulation of CFTR^530 [1] | Compound | ΔF508-CFTR function (ΔF508-CFTR)
1 | relatively insensitive | relatively insensitive | 10 fold | 10 fold | CC(C)C[C@H](NC(=O)[C@H](Cc1ccccc1)NC(=O)c1cnccn1)B(O)O [bortezomib] | –
2 | – | – | – | – | COc1ccc(Cl)cc1Nc1nc(-c2sc(NC(=O)c3ccccc3)nc2C)cs1 [Corr-4a] | partially restored

From patent publication US20160030406A1, “CORRECTORS ACTING THROUGH MSD1 OF CFTR PROTEIN” (VERTEX PHARMACEUTICALS INCORPORATED, priority 2013, published 2016)
